# Starred links: 1 amine or outer side, 2 acyl side, 3 side chain; linkers in the order of their positions; H or OH if unused. Non-standard residues stand in square brackets, D forms with d. Residues, ends and D or L forms follow the SMILES beside them. Groups on a side chain read outwards from the residue. *: point of attachment. C20 diacid = O=C(O)CCCCCCCCCCCCCCCCCCC(=O)*; C18 diacid = O=C(O)CCCCCCCCCCCCCCCCC(=O)*; Dip = N[C@H](C(=O)O)C(c1ccccc1)c1ccccc1; γGlu = O=C(O)[C@H](CCC(=O)[*:2])N[*:1]; Stearoyl = CCCCCCCCCCCCCCCCCC(=O)*; Palmitoyl = CCCCCCCCCCCCCCCC(=O)*; αMeF = C[C@](N)(Cc1ccccc1)C(=O)O; PEG4 = NCCOCCOCCOCCOCCC(=O)O; PEG2 = NCCOCCOCCC(=O)O; AEEA = NCCOCCOCC(=O)O; Aib = CC(C)(N)C(=O)O
# How the values were obtained:
# [1] = target: T1, human glucagon receptor (hGCGR) (Homo sapiens, UniProt P47871); experiment: cAMP production (HTRF) in CHO cells expressing human glucagon receptor; format: cell-based; details: Table 7, modification at position 20, CHO cells expressing hGCGR, geometric mean, read-out: hGluc-R EC50
# T1 construct: expressed in transfected cells; host or cells: CHO
# T1 sequence (P47871 26-477): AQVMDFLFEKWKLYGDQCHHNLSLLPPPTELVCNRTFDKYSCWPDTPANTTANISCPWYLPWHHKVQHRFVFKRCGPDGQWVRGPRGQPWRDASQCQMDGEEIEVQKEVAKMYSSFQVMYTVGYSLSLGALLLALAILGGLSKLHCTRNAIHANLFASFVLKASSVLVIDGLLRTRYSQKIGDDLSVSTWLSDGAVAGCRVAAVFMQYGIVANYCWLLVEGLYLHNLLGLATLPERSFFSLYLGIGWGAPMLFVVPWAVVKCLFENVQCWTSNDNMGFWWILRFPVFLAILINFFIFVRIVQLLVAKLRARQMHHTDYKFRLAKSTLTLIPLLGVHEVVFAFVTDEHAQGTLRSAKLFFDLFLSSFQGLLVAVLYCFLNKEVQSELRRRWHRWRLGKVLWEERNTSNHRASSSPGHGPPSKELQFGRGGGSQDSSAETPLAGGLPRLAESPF
# [2] = target: T2, human GLP-1 receptor (hGLP-1R) (Homo sapiens, UniProt P43220); experiment: cAMP production (HTRF) in CHO cells expressing human GLP-1 receptor; format: cell-based
# T2 construct: expressed in transfected cells; host or cells: CHO
# T2 sequence (P43220 24-463): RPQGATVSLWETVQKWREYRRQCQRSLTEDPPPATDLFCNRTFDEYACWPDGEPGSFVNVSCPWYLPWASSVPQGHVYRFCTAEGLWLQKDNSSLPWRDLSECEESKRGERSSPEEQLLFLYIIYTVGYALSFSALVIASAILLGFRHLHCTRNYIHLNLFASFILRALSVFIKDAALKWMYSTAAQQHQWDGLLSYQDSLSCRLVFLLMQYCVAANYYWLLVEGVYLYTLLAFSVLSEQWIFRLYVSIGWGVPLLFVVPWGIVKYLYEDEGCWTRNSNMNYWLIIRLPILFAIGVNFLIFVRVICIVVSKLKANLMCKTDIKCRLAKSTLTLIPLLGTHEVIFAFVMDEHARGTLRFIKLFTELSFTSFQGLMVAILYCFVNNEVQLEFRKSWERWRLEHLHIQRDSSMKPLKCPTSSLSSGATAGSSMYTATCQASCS
# [3] = target: T3, neprilysin (Homo sapiens, UniProt P08473); experiment: Proteolytic resistance to neprilysin; format: in vitro ADME; details: pH 8.3
# T3 construct: purchased R&D Systems 1182-ZNC-010
# T3 sequence (P08473 whole entry): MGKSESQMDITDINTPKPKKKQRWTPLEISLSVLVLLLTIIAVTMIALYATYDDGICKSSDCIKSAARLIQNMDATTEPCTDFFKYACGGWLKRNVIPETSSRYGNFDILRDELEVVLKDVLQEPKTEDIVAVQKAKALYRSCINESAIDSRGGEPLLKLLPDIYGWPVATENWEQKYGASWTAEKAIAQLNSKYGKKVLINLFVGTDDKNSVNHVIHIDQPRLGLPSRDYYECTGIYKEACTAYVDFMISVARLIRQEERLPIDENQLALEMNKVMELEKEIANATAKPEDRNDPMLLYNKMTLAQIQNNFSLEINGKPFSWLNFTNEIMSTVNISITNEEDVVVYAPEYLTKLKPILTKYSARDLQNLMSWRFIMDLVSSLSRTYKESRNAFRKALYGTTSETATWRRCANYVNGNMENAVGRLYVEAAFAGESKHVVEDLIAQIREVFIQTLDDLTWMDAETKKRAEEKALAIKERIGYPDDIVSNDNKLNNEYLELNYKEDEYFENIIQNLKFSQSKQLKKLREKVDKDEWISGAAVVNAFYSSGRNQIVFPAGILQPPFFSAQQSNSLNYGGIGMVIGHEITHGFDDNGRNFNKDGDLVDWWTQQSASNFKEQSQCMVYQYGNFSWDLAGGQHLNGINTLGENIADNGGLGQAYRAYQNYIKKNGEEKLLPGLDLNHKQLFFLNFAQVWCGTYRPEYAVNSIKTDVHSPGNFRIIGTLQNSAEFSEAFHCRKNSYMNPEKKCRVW
# Experimental: 10.0 μg (˜10 units) recombinant Neprilysin (R&D Systems: 1182-ZNC-010) was reconstituted to 100 μL (100 μg/mL, ˜100 units/mL) in assay buffer (50 mM Tris, 50 mM NaCl, 50 mM NaHCO3, adjusted to pH 8.3) to give the enzyme stock solution. Peptide stock solutions were prepared to a concentration of ˜250 μM (˜1.0 mg/mL of 4 kDa peptide) in assay buffer. 100 μL (10 μg, ˜10 units) of neprilysin stock solution was added to 100 μL of peptide stock solution (1.0 mg/mL, ˜100 μg of peptide) and the mixture was co-incubated in a temperature regulated incubator at 37° C. for the duration of the experiment. 25 μL aliquots (˜12.5 μg initial peptide) of the peptide-enzyme mixture were periodically withdrawn (t=0, 30 mins, 1 h, 2 h, 4 h and 24 h) and quenched immediately by addition to an equal volume ([…]) of 10% TFA (v/v) in 1:1 water/acetonitrile to arrest proteolytic activity. The quenched aliquot centrifuged at 7800 rpm, and 30 μL of the supernatant was analyzed by analytical RP-HPLC as follows: Analytical RP-HPLC method: Agilent Polaris C8-A column (4.6×100 mm, 3 micron) eluted with a linear binary gradient of 10-90% MeCN (0.1% TFA v/v) in water (0.1% TFA v/v) over either 10 or 15 mins at 1.5 mL min^−1 at 40° C. with detection by UV absorption at 210 nm. Manual integration (AUC) allowed estimation of remaining intact peptide over the time course of the experiment.
# [4] = system: wildtype (WT) mice; experiment: Glucose change in wildtype mice; format: in vivo, mouse; details: s.c.
# Experimental: […] and wildtype (WT) mice at 8-14 weeks of age were singly housed on standard chow diet (Envigo, 2918) and automatic water. They acclimated for a minimum of ˜1-2 weeks, and mice were sorted into groups (n=4-8/group) based on body weight. On day of study, mice were fasted briefly for 2 hrs prior to study start. In some studies, mice were pre-treated with octreotide (BaChem, 10 mg/kg) at 30 minutes prior to peptide injection. Glucose was measured via glucometer at various timepoints including −30 min (prior to octreotide when used in studies), 0 min (before peptide dose), 30, 60, 120, 180, 240, and 360 minutes. Since these studies are acute in nature, mice were re-used for multiple studies (no more than 3) and always allowed at least a minimum wash-out period of 1 week.
# [5] = 10 nmol/kg, somatostatin pretreatment 30 min prior to cpd
structure (smiles),measurement,setting,value
CC[C@H](C)[C@H](NC(=O)[C@H](Cc1c[nH]c2ccccc12)NC(=O)[C@H](CCC(N)=O)NC(=O)[C@@H](NC(=O)[C@H](Cc1ccccc1)NC(=O)[C@H](CC(=O)O)NC(=O)[C@H](CCCCNC(=O)COCCOCCNC(=O)COCCOCCNC(=O)CC[C@H](NC(=O)CC[C@H](NC(=O)CCCCCCCCCCCCCCCCCCC(=O)O)C(=O)O)C(=O)O)NC(=O)[C@H](C)NC(=O)[C@H](C)NC(=O)[C@H](CCCNC(=N)N)NC(=O)[C@H](CO)NC(=O)[C@H](CC(=O)O)NC(=O)[C@H](CC(C)C)NC(=O)[C@](C)(Cc1ccccc1)NC(=O)[C@H](CCCCN)NC(=O)[C@H](CO)NC(=O)[C@@H](NC(=O)[C@H](CC(=O)O)NC(=O)[C@H](CO)NC(=O)[C@@H](NC(=O)[C@H](Cc1ccccc1)NC(=O)[C@H](CO)NC(=O)CNC(=O)[C@H](Cc1c[nH]cn1)NC(=O)C(C)(C)NC(=O)[C@@H](N)Cc1c[nH]cn1)[C@@H](C)O)C(C)C)C(C)C)C(=O)N[C@@H](C)C(=O)N[C@@H](CC(N)=O)C(=O)N[C@H](C(N)=O)[C@@H](C)O [Peptide 290] (H-H[Aib]HGSFTSDVSK[αMeF]LDSRAAK([AEEA-AEEA-γGlu-γGlu-C20 diacid])DFVQWIANT-NH2; N-terminus assumed),EC50,[1],260 pM
same,EC50,"[2]; Table 7, modification at position 20, CHO cells expressing hGLP-1R, cAMP, geometric mean, read-out: hGLP-1R EC50",347 pM
same,% Relative Potency Ratio,"[2]; Table 7, % GLP-1R activity relative to GLP-1 / % GlucR activity relative to glucagon",1.5
same,"remaining at 4 h, 125 µM",[3]; isolated enzyme neprilysin,89%
same,"remaining at 24 h, 125 µM",[3]; isolated enzyme neprilysin,82%
same,"% intact peptide over time, Neprilysin",[3],100%
CCCCCCCCCCCCCCCC(=O)N[C@@H](CCC(=O)N[C@@H](CCC(=O)NCCOCCOCCOCCOCCC(=O)NCCCC[C@H](NC(=O)[C@H](CO)NC(=O)[C@H](CC(=O)O)NC(=O)[C@H](CC(C)C)NC(=O)[C@@H](NC(=O)[C@H](CCCCN)NC(=O)[C@H](CO)NC(=O)[C@@H](NC(=O)[C@H](CC(=O)O)NC(=O)[C@H](CO)NC(=O)[C@@H](NC(=O)[C@](C)(Cc1ccccc1)NC(=O)[C@H](CO)NC(=O)CNC(=O)[C@H](CCC(N)=O)NC(=O)C(C)(C)NC(=O)[C@@H](N)Cc1c[nH]cn1)[C@@H](C)O)C(C)C)C(c1ccccc1)c1ccccc1)C(=O)N[C@@H](CCCNC(=N)N)C(=O)N[C@@H](C)C(=O)N[C@@H](CCC(N)=O)C(=O)N[C@@H](CC(=O)O)C(=O)N[C@@](C)(Cc1ccccc1)C(=O)N[C@H](C(=O)N[C@@H](CCC(=O)O)C(=O)NC(C)(C)C(=O)N[C@@H](CC(C)C)C(=O)N[C@@H](CCC(=O)O)C(=O)N[C@@H](C)C(=O)NCC(=O)NCC(N)=O)C(C)C)C(=O)O)C(=O)O [Peptide 43] (H-H[Aib]QGS[αMeF]TSDVSK[Dip]LDSK([PEG4-γGlu-γGlu-Palmitoyl])RAQD[αMeF]VE[Aib]LEAGG-NH2; N-terminus assumed),WT % glucose change 120 min,"[4]; 3 nmol/kg, no somatostatin pretreatment",−56.0%
"CC[C@H](C)[C@H](NC(=O)C(C)(C)NC(=O)[C@H](CCC(N)=O)NC(=O)[C@@H](NC(=O)[C@](C)(Cc1ccccc1)NC(=O)[C@H](CC(=O)O)NC(=O)[C@H](CCCCNC(=O)COCCOCCNC(=O)COCCOCCNC(=O)CC[C@H](NC(=O)CCCCCCCCCCCCCCCCC(=O)O)C(=O)O)NC(=O)[C@H](C)NC(=O)[C@H](C)NC(=O)[C@H](CCCNC(=N)N)NC(=O)[C@H](CO)NC(=O)[C@H](CC(=O)O)NC(=O)[C@H](CC(C)C)NC(=O)[C@](C)(Cc1ccccc1)NC(=O)[C@H](CCCCN)NC(=O)[C@H](CO)NC(=O)[C@@H](NC(=O)[C@H](CC(=O)O)NC(=O)[C@H](CO)NC(=O)[C@@H](NC(=O)[C@](C)(Cc1ccccc1)NC(=O)[C@H](CO)NC(=O)CNC(=O)[C@H](Cc1c[nH]cn1)NC(=O)C(C)(C)NC(=O)[C@@H](N)Cc1c[nH]cn1)[C@@H](C)O)C(C)C)C(C)C)C(=O)N[C@@H](C)C(=O)N[C@@H](CC(N)=O)C(=O)N[C@H](C(N)=O)[C@@H](C)O [Peptide 224, H-Aib-H-G-S-αMePhe-T-S-D-V-S-K-αMePhe-L-D-S-R-A-A-K(ε-(O2Oc)-(O2Oc)-γE-C18diacid)20-D-αMePhe-V-Q-Aib-I-A-N-T-amide] (H-H[Aib]HGS[αMeF]TSDVSK[αMeF]LDSRAAK([AEEA-AEEA-γGlu-C18 diacid])D[αMeF]VQ[Aib]IANT-NH2)",WT % glucose change 120 min,[4]; [5],−40.0%
CC(C)C[C@H](NC(=O)[C@H](Cc1c[nH]c2ccccc12)NC(=O)[C@H](CCCNC(=N)N)NC(=O)[C@@H](NC(=O)[C@H](Cc1ccccc1)NC(=O)[C@H](CC(=O)O)NC(=O)[C@H](CCC(N)=O)NC(=O)[C@H](C)NC(=O)[C@H](CCCNC(=N)N)NC(=O)[C@H](CCCCNC(=O)COCCOCCNC(=O)COCCOCCNC(=O)CC[C@H](NC(=O)CCCCCCCCCCCCCCCCC(=O)O)C(=O)O)NC(=O)[C@@H](NC(=O)[C@H](CC(=O)O)NC(=O)[C@H](CC(C)C)NC(=O)[C@](C)(Cc1ccccc1)NC(=O)[C@H](CCCCN)NC(=O)[C@H](CO)NC(=O)[C@@H](NC(=O)[C@H](CC(=O)O)NC(=O)[C@H](CO)NC(=O)[C@@H](NC(=O)[C@H](Cc1ccccc1)NC(=O)[C@@H](NC(=O)CNC(=O)[C@H](CCC(N)=O)NC(=O)C(C)(C)NC(=O)[C@@H](N)Cc1c[nH]cn1)[C@@H](C)O)[C@@H](C)O)C(C)C)[C@@H](C)O)C(C)C)C(=O)N[C@@H](CC(C)C)C(=O)N[C@@H](CCC(=O)O)C(=O)NC(C)(C)C(=O)NCC(=O)O [Peptide 140] (H-H[Aib]QGTFTSDVSK[αMeF]LDTK([AEEA-AEEA-γGlu-C18 diacid])RAQDFVRWLLE[Aib]G-OH; N-terminus assumed),WT % glucose change 60 min,"[4]; 30 nmol/kg, no somatostatin pretreatment",−29.0%
CCCCCCCCCCCCCCCCCC(=O)N[C@@H](CCC(=O)N[C@@H](CCC(=O)NCCOCCOCCC(=O)NCCOCCOCCC(=O)NCCCC[C@H](NC(=O)[C@H](CO)NC(=O)[C@H](CC(=O)O)NC(=O)[C@H](CC(C)C)NC(=O)[C@@H](NC(=O)[C@H](CCCCN)NC(=O)[C@H](CO)NC(=O)[C@@H](NC(=O)[C@H](CC(=O)O)NC(=O)[C@H](CO)NC(=O)[C@@H](NC(=O)[C@](C)(Cc1ccccc1)NC(=O)[C@H](CO)NC(=O)CNC(=O)[C@H](CCC(N)=O)NC(=O)[C@H](CO)NC(=O)[C@@H](N)Cc1c[nH]cn1)[C@@H](C)O)C(C)C)C(c1ccccc1)c1ccccc1)C(=O)N[C@@H](C)C(=O)N[C@@H](C)C(=O)N[C@@H](CCC(N)=O)C(=O)N[C@@H](CC(=O)O)C(=O)N[C@@](C)(Cc1ccccc1)C(=O)N[C@H](C(=O)N[C@@H](CCC(=O)O)C(=O)NC(C)(C)C(=O)N[C@H](C(=O)N[C@@H](C)C(=O)N[C@@H](CC(N)=O)C(=O)N[C@H](C(N)=O)[C@@H](C)O)[C@@H](C)CC)C(C)C)C(=O)O)C(=O)O [Peptide 49] (H-HSQGS[αMeF]TSDVSK[Dip]LDSK([PEG2-PEG2-γGlu-γGlu-Stearoyl])AAQD[αMeF]VE[Aib]IANT-NH2; N-terminus assumed),WT % glucose change 120 min,[4]; [5],−1.2%

# From patent US12630600B2 (MEDIMMUNE LIMITED, priority 2022, dated 2026)
